Measured values reported in patent US11485701B2, “Insect repellent compounds and compositions, and methods thereof” (Iowa State University Research Foundation, Inc., priority 2016, dated 2022).
Entries after “also recorded” stand apart in the source; their conditions may differ.

Tests used:
[1] = tested on: Aedes aegypti; assay: Human skin testing, biting deterrence (BioGents test cage, treated nylon sleeve); type: in vivo
Protocol: Female mosquitoes (Aedes aegypti) were reared according to the standard protocol at a temperature of 27.5±1° C., a relative humidity of 65-80% and a 12:12 hour photo period. The light period (450 Lux) was set from 7:00 to 19:00. After hatching from the eggs, larvae were kept in a water basin (30×30×10 cm) filled with a 1:1 mixture of tap- and deionized water with low oxygen content and fed with fish food flakes (Tetra Min®). Pupae were transferred to a cage (40×30×20 cm) provided with sugar solution (10% dextrose). Mosquitoes at an age of 5 to 10 days post-emergence were used for behavioral tests.
BioGents (BG) test cages are an in-house improvement of conventional test cages for the evaluation of mosquito repellents (Obermayr et al., “A Novel Test Cage with an Air Ventilation System as an Alternative to Conventional Cages for the Efficacy Testing of Mosquito Repellents,” J. Med. Entomol. 47:1116-22 (2010) which is hereby incorporated by reference in its entirety). The cages have a volume of 27.000 cm^3 (41×41×16 cm). Four sides of a cage are made of acrylic glass, the floor is made of metal sheet, and the rear side is covered by a gauze sleeve. The floor sheet is equipped with a test window (size: 56 cm^2; 14.8×3.8 cm) for the exposure of the treated skin. In between tests, BG cages are connected to a ventilation system that provides clean, warm, and humid air (26±1° C., 65±5% R.H.) to remove remaining host odours and repellent volatiles from the air inside the cage. In the presented study, the ventilation system was not applied as mosquitoes were only tested once and then discarded. Each treated sleeve was tested on a fresh batch of mosquitoes. Each cage was filled with populations of 30 mosquitoes, lured out of their rearing cages by a natural stimulus (human hand) to ensure that only host-seeking females are used for the repellent tests
All formulations have been stored at 4° C. Prior to testing, stock formulations were diluted v/v to final concentrations of 10% in 200 proof ethanol. […] For each test formulations, 2 pieces were prepared—one was treated, while the other one remained untreated and was worn between skin and treated nylon sleeve.
From each test formulation 5 ml were filled into 25 ml glass flasks; immediately afterwards stockings were folded into the flasks and pushed into the liquid formulation with a clean spatula. Flasks were sealed and incubated in the fridge overnight. On the consecutive day, one of the treated nylon pieces was removed from the flasks and left to dry on a clean paper towel for at least 10 minutes or until the ethanol had evaporated. The drying process was conducted at 27° C. and 65% to 80%. One untreated nylon sleeve was attached to the forearm followed by the treated sleeve.
Prior to a repellent efficacy test, the biting activity of the test mosquitoes was verified with the other, untreated forearm of a volunteer (wearing an untreated nylon sleeve). To keep biting pressure on the untreated skin low, a modified spacer covered with fine mosquito netting was used in control tests. Mosquitoes were still attracted to the skin odours and landed on the net, however they were not able to reach the skin and pierce it. A minimum of 10 landings had to be observed in 30 seconds during tests with Ae. aegypti. In case of lowered biting activities, 5 to 10 new mosquitoes were added to the cage or 30 new mosquitoes are used. […] The number of landing and biting mosquitoes was recorded. […]

[2] = tested on: female Aedes aegypti (Orlando strain, 1952); assay: Minimum effective dosage testing, human skin (treated cloth patch); type: in vivo
Protocol: The test mosquitoes were female Aedes aegypti (Orlando strain, 1952) from the colony maintained at United States Department of Agriculture-Agricultural Research Service-Center for Medical, Agricultural and Veterinary Entomology (USDA-ARS-CMAVE) in Gainesville, Fla. Pupae were obtained from the colony and newly emerged mosquitoes were maintained on 10% sugar water and kept in laboratory cages at an ambient temperature of 28±1° C. and RH of 35-60%. Host seeking behavior was pre-selected in nulliparous female mosquitoes aged 6-10 days, indicated by flight upwind towards a potential host, from stock cages using a hand-draw box and trapped in a collection trap.
After 500 (±10%) females were collected in the trap, they were transferred to a test cage (approximately 59,000 cm^3 with dimensions 45×37.5×35 cm) and allowed to acclimatize for 17.5 (±2.5) min before testing was initiated. Just prior to the experiment, the pieces of treated cloth are removed from the vials and stapled onto card stock tabs (5×3 cm). Each piece of the cards and the assembly were hung on a drying rack using masking tape for 3-5 min. Participants in the study used latex gloves to pull a nylon stocking over their arm. A Velcro™-sealed vinyl sleeve was then placed over the forearm. […] The purpose of the nylon stocking was to produce a barrier between the dried cloth and the skin, thereby avoiding direct contact of chemical to skin. The dried cloth assembly was affixed over the opening in the sleeve and held in place with masking tape. Participants then inserted their arm with the sleeve and patch into a screened cage that contained female Ae. Aegypti mosquitoes. Tests were conducted on each control or treated patch for 1 min. A control patch (acetone solvent only, then dried) was tested prior to the start of experiments and evaluation of the same untreated control patch after every 10 tests. If 5 landings were not received on the control patch in 30 s, then tests were discontinued for 60 min. At the conclusion of testing the control patch was tested again. If five landings were not received within 30 s, the data for the replicate was discarded. When testing a patch treated with a candidate repellent, if approximately 1% or 5 mosquito bites were received during this one minute test, this compound was considered to have failed, i.e., was not repellent at that concentration. If a treated cloth patch received 0-4 bites within a minute, then it was considered as passed, i.e., repellent at that concentration of the test compound. The median concentration patch was tested in the first round and treated patches were then tested successively at higher or lower concentrations depending upon whether the previous patch failed or passed, respectively.
The time interval between each tested patch was <90 seconds until 10 successive tests had been conducted. If appreciable, mortality had occurred during testing, the number of knocked down mosquitoes are estimated and additional female mosquitoes are added to the cage to keep the available mosquitoes at approximately 500. The estimate of the MED was the lowest concentration that passed for each candidate. Observed MED values for each candidate compound were averaged across participants and reported as a mean MED±standard error.

[3] = nylon treated with 10% in ethanol, max 2 min exposure, one volunteer
[4] = treated cloth patch, 1 min test, high dose 1.5 mg/cm^2

With `CC(C)=CCCC(C)CC(=O)OCC(C)O` (stereo not drawn) [Compound 2144, 2-hydroxypropyl citronellate] the Observations ([1]; nylon treated with 10%) was “Repellent effects were clearly noticeable; also recorded: Visible repelient effects”, the Bites ([1]; nylon treated with 10% in ethanol, bites per 120 sec) was 0/120 sec and the “Contacts: Landing (mosquitoes sits for >3 sec)” value [1, 3] was 2. The “Contacts: Short touch-down” value [1, 3] was 18, the bite reduction ([1]; nylon treated with 10%, versus untreated nylon) was “(100% bite reduction)” and the Minimum effective dosage [2] was 0.055 mg/cm². The “Proportion to DEET” value ([2]; average MED relative to DEET) was 2.053, the “Minimum effective dosage testing, result in words” value ([2]; in vivo) was “performed similarly to DEET” and the “Minimum Effective Dosage, Average” value ([2]; mean across subjects) was 0.039 mg/cm^2. The “Minimum Effective Dosage, Subject 1” value [2, 4] was 0.047 mg/cm^2, the “Minimum Effective Dosage, Subject 2” value [2, 4] was 0.047 mg/cm^2 and the “Minimum Effective Dosage, Subject 3” value [2, 4] was 0.023 mg/cm^2.
